These results are taken from patent publication US8536202B2, “Triazole-substituted anthranilamides as pesticides” (Bayer Cropscience AG, priority 2010, dated 2013).

The structures appear in SMILES notation. Where two headings read alike, the source gives them in different places.

Series [1] in a line: log P determination by HPLC on reversed-phase columns (EEC Directive 79/831 Annex V.A8). Type of series: physicochemical. Particulars: pH 2.7. The essentials:
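log P from reversed-phase LC-MS retention at pH 2.7, 0.1% formic acid water/acetonitrile gradient 10–95% acetonitrile. Calibrated against C3–C16 unbranched alkan-2-ones, interpolating linearly between adjacent alkanones.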

Series [2] concerns green peach aphid (Myzus persicae). Put plainly: Myzus test (MYZUPE spray treatment), Use Example 4. Particulars: 144 h, 100 g/ha, after 6 days, read-out: activity in %. Type of series: in vivo. Here is the method: Solvents: 78 parts by weight of acetone • • 1.5 parts by weight of dimethylformamide
Emulsifier: 0.5 part by weight of alkylaryl polyglycol ether
An appropriate preparation of active compound is prepared by mixing 1 part by weight of active compound with the stated amounts of solvents and emulsifier and diluting the concentrate with emulsifier-containing water to the desired concentration.
Leaf discs of Chinese cabbage (Brassica pekinensis) infested by all stages of the green peach aphid (Myzus persicae) are sprayed with a preparation of active compound at the desired concentration.
After 6 days, the activity in % is ascertained. Here, 100% means that all of the aphids have been killed; 0% means that no aphids have been killed.

Series [3] relates to larvae of the mustard beetle (Phaedon cochleariae). Put plainly: Phaedon test (PHAECO spray treatment). The note with it: 168 h, 100 g/ha, after 7 days, read-out: activity in %. Type of series: in vivo. The essentials: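 Compound dissolved in acetone/dimethylformamide with alkylaryl polyglycol ether emulsifier, then diluted with emulsifier-containing water to test concentration for spray treatment of Phaedon cochleariae larvae. Activity scored after 7 days as % larvae killed (100% = all dead, 0% = none).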

For series [4], the system named is caterpillars of the armyworm (Spodoptera frugiperda). Briefly: Spodoptera frugiperda test (SPODFR spray treatment). Type of series: in vivo. Particulars: 168 h, after 7 days; for pest or weed control at 100 g/ha: read-out: activity in %. An outline of the steps: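 Maize leaf discs sprayed with compound diluted in emulsifier-containing water (acetone/DMF solvent, alkylaryl polyglycol ether emulsifier), dried, then infested with armyworm caterpillars. Kill scored after 7 days as % mortality, 100% = all caterpillars dead, 0% = none.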

[5] abbreviates: reversed-phase C18 HPLC column, HPLC on reversed-phase columns (C 18), EEC Directive 79/831 Annex V.A8, read-out: logP.

`Cc1cc(Cl)cc(C(=O)NC2CC2)c1NC(=O)c1cc(Cn2cc(C(F)(F)C(F)(F)F)nn2)nn1-c1ncccc1Cl` [Example 301] came in with a chromatographic logP in series [1] of 3.26. The pest or weed control at 100 g/ha was 90% in series [2], 100% in series [3] and 100% in series [4].
Regarding `CNC(=O)c1cc(C#N)cc(C)c1NC(=O)c1cc(Cn2cc(C(F)(F)F)nn2)nn1-c1ncccc1Cl` [Example 177], the chromatographic logP in series [1] is 2.28. Further, the pest or weed control at 100 g/ha in series [2], in series [3] and in series [4] was 100% in each case.
Take `CSC[C@H](C)NC(=O)c1cc(Cl)cc(C)c1NC(=O)c1cc(Cn2ncc(C(F)(F)C(F)(F)F)n2)nn1-c1ncccc1Cl` [Example 348]: the chromatographic logP in series [1] was 4.1. Also, the pest or weed control at 100 g/ha is 80% in series [2], 100% in series [3] and 100% in series [4].
`Cc1cc(Cl)cc(C(=O)NC(C)(C)C)c1NC(=O)c1cc(Cn2ncc(C(F)(F)C(F)(F)F)n2)nn1-c1ncccc1Cl` [Example 360]: the chromatographic logP in series [1] is 4.27. Also, the pest or weed control at 100 g/ha turned out to be 80% in series [2], 100% in series [3] and 100% in series [4].
In the case of `Cc1cc(C#N)cc(C(=O)NC2CCC2)c1NC(=O)c1cc(Cn2ncc(C(F)(F)F)n2)nn1-c1ncccc1Cl` [Example 131], in series [1], the chromatographic logP came to 3.23. For the same compound, the values for the pest or weed control at 100 g/ha in series [2], in series [3] and in series [4] were 90%, 100% and 100%, respectively.
Regarding `CNC(=O)c1cc(C#N)cc(C)c1NC(=O)c1cc(Cn2nncc2C(F)(C(F)(F)F)C(F)(F)F)nn1-c1ccccc1Cl` [Example 298], in series [1] (setting [5]), the chromatographic logP is 3.46. Moreover, the figures for the pest or weed control at 100 g/ha in series [2], in series [3] and in series [4] were 80%, 100% and 100%, respectively.
As for `Cc1cc(C#N)cc(C(=O)NC2CC2)c1NC(=O)c1cc(Cn2ncc(C(F)(F)C(F)(F)F)n2)nn1-c1ncccc1Cl` [Example 353], the chromatographic logP in series [1] is 3.25. The pest or weed control at 100 g/ha in series [2], in series [3] and in series [4] was 100% in each case.
For the compound `Cc1cc(C#N)cc(C(=O)NCC2CC2)c1NC(=O)c1cc(Cn2cc(C(F)(F)F)nn2)nn1-c1ncccc1Cl` [Example 185], in series [1], the chromatographic logP was 2.81. Further, the results for the pest or weed control at 100 g/ha in series [2], in series [3] and in series [4] were 90%, 100% and 100%, respectively.
Compound `CSC[C@H](C)NC(=O)c1cc(C#N)cc(C)c1NC(=O)c1cc(Cn2ncc(C(F)(F)F)n2)nn1-c1ncccc1Cl` [Example 133] returned a chromatographic logP in series [1] of 3.33. Further, the pest or weed control at 100 g/ha in series [2] worked out at 90%; in series [3], 100%; in series [4] it was 100%.
Turning to `Cc1cc(C#N)cc(C(=O)NC(C)C)c1NC(=O)c1cc(Cn2cc(C(F)(F)F)nn2)nn1-c1ncccc1Cl` [Example 181], the chromatographic logP in series [1] is 2.67. The pest or weed control at 100 g/ha in series [2] was 90%; in series [4] it was 100%.
Regarding `CNC(=O)c1cc(Cl)cc(C)c1NC(=O)c1cc(Cn2nc3ccc(F)cc3n2)nn1-c1ncccc1Cl` [Example 79], in series [1], the chromatographic logP was 2.89. For the same compound, the pest or weed control at 100 g/ha in series [3] and in series [4] was 100% in each case.
In turn, `Cc1cc(Cl)cc(C(=O)NC2CC2)c1NC(=O)c1cc(Cn2nc(C(F)(F)F)c(C(F)(F)F)n2)nn1-c1ncccc1Cl` [Example 394] came in with a chromatographic logP in series [1] of 3.96. Besides, the pest or weed control at 100 g/ha in series [3] and in series [4] was 100% throughout.
`Cc1cc(Br)cc(C(=O)NC(C)(C)C)c1NC(=O)c1cc(Cn2ncc(C(F)(F)F)n2)nn1-c1ncccc1Cl` [Example 176]: the chromatographic logP in series [1] is 4.65. Also, the pest or weed control at 100 g/ha in series [3] and in series [4] was 100% in each case.
As for `CNC(=O)c1cc(Cl)cc(C)c1NC(=O)c1cc(Cn2nnc3c(Br)cc(OC(F)(F)F)cc32)nn1-c1ncccc1Cl` [Example 90], the chromatographic logP in series [1] stood at 3.74. Besides, the pest or weed control at 100 g/ha in series [3] and in series [4] was 100% each time.
`CSC[C@H](C)NC(=O)c1cc(I)cc(C)c1NC(=O)c1cc(Cn2ncc(C(F)(C(F)(F)F)C(F)(F)F)n2)nn1-c1ncccc1Cl` [Example 270]: the chromatographic logP in series [1] (setting [5]) is 4.73. Besides, in series [3], the pest or weed control at 100 g/ha was found to be 100%. Also, the pest or weed control at 20 g/ha in series [4] (20 g/ha) worked out at 100%.
Turning to `Cc1cc(C#N)cc(C(=O)NC(C)(C)C)c1NC(=O)c1cc(Cn2nnc3c(Cl)c(Cl)c(Cl)cc32)nn1-c1ncccc1Cl` [Example 108], in series [1], the chromatographic logP came out at 4.18. For the same compound, the pest or weed control at 100 g/ha in series [3] and in series [4] was 100% in each case.
`Cc1cc(I)cc(C(=O)NCC2CC2)c1NC(=O)c1cc(Cn2cc(C(F)(F)F)nn2)nn1-c1ncccc1Cl` [Example 214]: the chromatographic logP in series [1] stood at 3.45. Moreover, the pest or weed control at 100 g/ha in series [3] and in series [4] was 100% throughout.
Take `Cc1cc(C#N)cc(C(=O)NC(C)(C)C)c1NC(=O)c1cc(Cn2ncc(-c3cccc(Cl)c3)n2)nn1-c1ncccc1Cl` [Example 65]: in series [1], the chromatographic logP was found to be 4.14. The pest or weed control at 100 g/ha in series [3] and in series [4] was 100% in each case.
Take `Cc1cc(I)cc(C(=O)NC(C)(C)C)c1NC(=O)c1cc(Cn2ncc(C(F)(C(F)(F)F)C(F)(F)F)n2)nn1-c1ncccc1Cl` [Example 268]: in series [1] (setting [5]), the chromatographic logP came out at 4.9. The pest or weed control at 100 g/ha in series [3] and in series [4] was 100% each time.
As for `Cc1cc(I)cc(C(=O)NC(C)C)c1NC(=O)c1cc(Cn2ncc(C(F)(F)F)n2)nn1-c1ncccc1Cl` [Example 161], the chromatographic logP in series [1] was 3.73. The pest or weed control at 100 g/ha in series [3] and in series [4] was 100% each time.
`CNC(=O)c1cc(Cl)cc(C)c1NC(=O)c1cc(Cn2nccn2)nn1-c1ncccc1Cl` [Example 118]: in series [1], the chromatographic logP came out at 2.03. In addition, the pest or weed control at 100 g/ha in series [3] and in series [4] was 100% throughout.
Take `Cc1cc(C#N)cc(C(=O)NC2CC2)c1NC(=O)c1cc(Cn2nc(C(F)(F)F)c(C(F)(F)F)n2)nn1-c1ncccc1Cl` [Example 399]: the chromatographic logP in series [1] is 3.59. Also, the pest or weed control at 100 g/ha in series [3] and in series [4] was 100% in each case.
The compound `Cc1cc(I)cc(C(=O)NC(C)C)c1NC(=O)c1cc(Cn2cc(C(F)(C(F)(F)F)C(F)(F)F)nn2)nn1-c1ncccc1Cl` [Example 235] came in with a chromatographic logP in series [1] of 4.09. The pest or weed control at 100 g/ha in series [3] and in series [4] was 100% each time.
`CSC[C@H](C)NC(=O)c1cc(C#N)cc(C)c1NC(=O)c1cc(Cn2cc(C(F)(F)F)nn2)nn1-c1ncccc1Cl` [Example 183] showed a chromatographic logP in series [1] of 2.95. Besides, the pest or weed control at 100 g/ha in series [3] and in series [4] was 100% in each case.
Take `Cc1cc(I)cc(C(=O)NCC2CC2)c1NC(=O)c1cc(Cn2ncc(C(F)(F)F)n2)nn1-c1ncccc1Cl` [Example 163]: the chromatographic logP in series [1] was 3.8. Moreover, the pest or weed control at 100 g/ha in series [3] and in series [4] was 100% in each case.
With `CNC(=O)c1cc(C#N)cc(C)c1NC(=O)c1cc(Cn2ncc(C(F)(C(F)(F)F)C(F)(F)F)n2)nn1-c1ccccc1Cl` [Example 297], the chromatographic logP in series [1] (setting [5]) is 3.88. Besides, the pest or weed control at 100 g/ha in series [3] and in series [4] was 100% throughout.
With `CCNC(=O)c1cc(I)cc(C)c1NC(=O)c1cc(Cn2nc(C(F)(F)F)c(C(F)(F)F)n2)nn1-c1ncccc1Cl` [Example 389], the chromatographic logP in series [1] came to 4.23. The pest or weed control at 100 g/ha in series [3] and in series [4] was 100% each time.
`Cc1cc(Cl)cc(C(N)=O)c1NC(=O)c1cc(Cn2nc(C(F)(F)F)c(C(F)(F)F)n2)nn1-c1ncccc1Cl` [Example 407] registered a chromatographic logP in series [1] of 3.49. The pest or weed control at 100 g/ha in series [3] and in series [4] was 100% throughout.
Take `Cc1cc(I)cc(C(=O)NC(C)C)c1NC(=O)c1cc(Cn2nc(C(F)(F)F)c(C(F)(F)F)n2)nn1-c1ncccc1Cl` [Example 403]: in series [1], the chromatographic logP worked out at 4.47. Besides, the pest or weed control at 100 g/ha in series [3] and in series [4] was 100% each time.
As for `CNC(=O)c1cc(F)cc(C)c1NC(=O)c1cc(Cn2ncc(C(F)(F)F)n2)nn1-c1ncccc1Cl` [Example 167], the chromatographic logP in series [1] is 2.63. The pest or weed control at 100 g/ha in series [3] and in series [4] was 100% in each case.
